The numbers were not newly measured in patent US10842739B2, “Biodegradable alpha-2 agonist polymeric implants and therapeutic uses thereof” (Allergan, Inc., priority 2008, dated 2020), which cites them from elsewhere.

Like-named read-outs stand apart in the source and are kept apart here.

Regarding `Brc1c(NC2=NCCN2)ccc2nccnc12` [brimonidine freebase, 5-bromo-6-(2-imidazolidinylideneamino)quinoxaline], the “water solubility (in words)” value is recorded as “negligible”. The “water solubility (in words)” value (listed as Brimonidine free base) was “poorly water soluble”. In addition, the “water solubility (in words)” value (listed as brimonidine free base) is listed as “not water soluble”.
